# Measurements reported in patent EP1153612A1, “ANTICANCER AGENT POTENTIATORS” (Tsuruo, Takashi, priority 1999, dated 2000).
# Test system: human colon adenocarcinoma cell HT-29
# Experiment: Sensitivity of cells to anticancer drug by colony formation method (M phase-synchronized cells, with or without proteasome inhibiting agent)
# Assay type: cell-based
# Details: for change of cell-killing effect of camptothecin: lactacystin 10 µM 13 hours, camptothecin 4 hours, FIG. 14
# Description: In the glucose starvation environment found in the solid cancer, the effect of combined use of the proteasome inhibitor in a human colon adenocarcinoma cell HT-29 with the anticancer drug targeting topoisomerase II was tested.
# Concerning culture media, for a culture condition in a normal state, RPMI 1640 medium (Nissui Pharmaceutical Co.-made) to which a 5% FBS (fetal bovine serum) was added and for the culture condition in the glucose starvation state symbolically found in the solid cancer, RPMI 1640 medium (Lifetech Oriental-made), lacking glucose, in which the 5% FBS was added were used, respectively. Culture was carried out using a CO2 incubator (Tabai Espec-made) under conditions of 5% CO2/95% air and humidity 100%.
# In order to test sensitivity to the anticancer drug, the cell cycle synchronization culture methodwas employed. Nocodazol (Sigma made) was used to synchronize the cell cycle, cells in a logarithmic proliferation phase were treated with 40 ng/ml Nocodazol for 9 hours, and cells accumulated in cell division phase (Mpahse) were collected by gentle pipetting. M phase-synchronized cells collected through these steps were washed with PBS (phosphate buffered saline) followed by inoculation of 1×10^5 cells per well of 12 well-culture plate.
# M phase-synchronized cells were cultured under the normal condition and the glucose starvation condition to conduct treatments with the proteasome inhibiting agent and the anticancer drug as follows. For cells under the glucose starvation condition, the culture medium, to which the proteasome inhibiting agent and the protease inhibiting agent not inhibiting proteasome were added as the control group, and the culture medium, to which no inhibiting agent has been added, was used. For cells under the normal condition, the culture medium, to which each inhibiting agent was not added, was used. After inoculation of cells, culture was carried out for 13 hours in each culture medium. […]
# Sensitivity of cells to the anticancer drug was measured using the colony formation method. As described above, cells treated with the proteasome inhibiting agent and the anticancer drug were washed with PBS followed by soaking in trypsin (Lifetech Oriental made) solution and removed from a culture dish to suspend in an ordinary culture medium. These cells were inoculated again in 500 to 5000 cells for a 10 cm culture dish and cultured for 10 to 12 days to form a colony. The colony formed was fixed by 10% formaldehyde solution and stainedwith 0.01% crystal violet (Wako Pure Chemicals made) solution. Number of colony was counted and a Cell survival rate was calculated assuming that the number of colonies untreated with the anticancer drug is 1.
# For reference, the proteasome inhibiting agent and the protease inhibiting agent not inhibiting proteasome used as described above were as follows. • (1) Proteasome inhibiting agent • . […] MG115 (carbobenzoxy-L-Leucyl-L-Leucyl-L-Norvalinal): final concentration 2.5 µM (Peptide Institute Inc. made) • . MG132 (carbobenzoxy-L-Leucyl-L-Leucyl-Leucinal) : final concentration 2.5 µM (Peptide Institute Inc. made) • . Lactacystin, final concentration 10 µM (Kindly supplied from The Kitasato Institute made) • (2) Protease inhibiting agent not inhibiting proteasome • . E64, final concentration 25 µM (Peptide Institute Inc. made) • . ZLLal (carbobenzoxy-L-Leucyl-L-Leucinal): final concentration 25 µM (Peptide Institute Inc. made)
# The cell culture condition for both M phase-synchronized culture method and culture under the glucose starvation condition was as described in Example 1. M phase-synchronized cells were cultured in the culture medium, to which lactacystin of the final concentration 10 µM was added, or the culture medium, to which this was not added, as the proteasome inhibiting agent under the ordinary condition and the glucose starvation condition, respectively, for 13 hours. […]
smiles,measurement,setting,value
CC(=O)N[C@@H](CSC(=O)[C@]1([C@@H](O)C(C)C)NC(=O)[C@H](C)[C@@H]1O)C(=O)O [lactacystin],change of cell-killing effect of bleomycin,"glucose starvation condition, lactacystin 7.5 µM 13 hours, bleomycin 4 hours",enhances the cell-killing effect
same,change of cell-killing effect of mitomycin C,"glucose starvation condition, lactacystin 7.5 µM 13 hours, mitomycin C 4 hours",enhances the cell-killing effect of mitomycin C
same,change of cell-killing effect of camptothecin,glucose starvation condition,enhances the cell-killing effect of camptothecin
same,effect on etoposide sensitivity,"glucose starvation condition, lactacystin 10 µM, FIG. 3",enhances sensitivity to etoposide
same,change of cell-killing effect of cisplatin,"ordinary culture condition and glucose starvation condition, lactacystin 7.5 µM 13 hours, cisplatin 4 hours, FIG. 18",enhances the cell-killing effect of cisplatin
same,change of cell-killing effect of camptothecin,ordinary culture condition,the cell-killing effect thereof is enhanced
